Data on 22 compounds can be found in US11078198B2 (BRISTOL-MYERS SQUIBB COMPANY, priority 2017, dated 2021).

Molecules are shown by their SMILES.

The experiment concerns the target T1, human FXR (Homo sapiens, UniProt Q96RI1).
T1 construct: expressed in transfected cells; host or cells: HEK293 cells stably carrying a 5xGal4-response-element firefly luciferase reporter, transiently transfected with pcDNA3.1-Gal4-FXR
T1 sequence (Q96RI1 262-486 limits assumed): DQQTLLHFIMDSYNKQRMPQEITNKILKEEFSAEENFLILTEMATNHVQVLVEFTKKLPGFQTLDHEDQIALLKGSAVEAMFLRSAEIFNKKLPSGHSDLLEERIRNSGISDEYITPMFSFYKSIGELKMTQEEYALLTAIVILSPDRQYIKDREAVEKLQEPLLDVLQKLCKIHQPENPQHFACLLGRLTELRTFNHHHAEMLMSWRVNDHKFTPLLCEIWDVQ
The experiment in a line: transient human FXR/Gal4-luciferase reporter assay. The experiment is classed as cell-based. The settings on record: Gal4-hFXR transfected HEK293 reporter cells; relative to 8 μM GW-4064. As for the experimental part:
A Gal4-hFXR fusion construct reporter system was used as the primary assay to characterize compound activity. A construct including 5 copies of the Gal4 promoter response element upstream of a firefly luciferase reporter cDNA was stably expressed in HEK293 cells. This reporter cell line was maintained in Dulbecco's Modified Eagle's medium (DMEM; Gibco) supplemented with 1% penicillin-streptomycin (P/S) solution, 500 μg/mL Zeocin and 10% charcoal/dextran-treated fetal bovine serum (cs-FBS) at 37° C. in a humidified 5% CO2 atmosphere. Another plasmid was constructed in which the human cytomegalovirus promoter in the pcDNA3.1 vector directs the expression of the cDNA encoding a fusion protein comprised of the DNA binding domain from the Gal4 transcription factor fused to the ligand binding domain from human FXR.
The day prior to transfection, the reporter cells in culture are detached from the plate with trypsin and plated into a T75 flask at a sufficient density to achieve approximately 90% confluence the next morning. The transfection reagents are prepared by separately diluting 25 μg of the pcDNA3.1-Gal4-FXR plasmid into 1.87 mL of Opti-MEM (Thermo-Fisher), and 40 μL of Lipofectamine 2000 (Thermo-Fisher) into 1.87 mL of Opti-MEM, and then adding the diluted DNA solution into the diluted Lipofectamine 2000 solution and incubating at room temperature for 15-20 minutes. The mixture is further diluted with 10 mL of a solution comprised of DMEM, 10% cs-FBS, and 1% P/S immediately prior to transferring to the cells. The maintenance culture media is aspirated from the cells and the final transfection mixture is added before the cells are incubated overnight at 37° C. in a humidified 5% CO2 atmosphere. This protocol can be scaled up, and the transiently transfected cells can be cryopreserved in an assay-ready format.
For compound testing, 100 nL of the compounds (serial dilutions in DMSO) are dispensed with an Echo acoustic dispenser (Labcyte) into the wells of a Corning/Costar clear bottom 384-well white plate. The transfected cells are harvested, counted, and diluted such that 10-25,000 cells in 25 μL are plated into each well of the 384-well compound assay plate. The compound-treated cells are incubated overnight at 37° C. in a humidified 5% CO2 atmosphere.
(In general: A reporter such as luciferase makes a cellular process visible.)
For orientation: EC50 means the concentration that produces a half-maximal response. Higher therefore signals lower potency in that assay. As to `O=C(O)c1cc(OC(F)F)c2cc(N3CCC4(C=C(c5c(-c6ccccc6C(F)(F)F)noc5C5CC5)C4)CC3)ccc2n1` [Example 58, 6-(2-(5-Cyclopropyl-3-(2-(trifluoromethyl)phenyl)isoxazol-4-yl)-7-azaspiro[3.5]non-1-en-7-yl)-4-(difluoromethoxy)quinoline-2-carboxylic acid], the EC50 is 2.3 nM. `COc1cc(C(=O)O)cc2sc(N3CCC4(C=C(c5c(-c6c(Cl)cncc6Cl)noc5C5CC5)C4)CC3)nc12` [Example 59, 2-(2-(5-Cyclopropyl-3-(3,5-dichloropyridin-4-yl)isoxazol-4-yl)-7-azaspiro[3.5]non-1-en-7-yl)-4-methoxybenzo[d]thiazole-6-carboxylic acid] gave a concentration for a half-maximal effect (EC50) of 4.1 nM.

For the compound `O=C(O)c1cc(C(F)(F)F)cc2nc(N3CCC4(C=C(c5c(-c6c(Cl)cncc6Cl)noc5C5CC5)C4)CC3)ccc12` [Example 60, 2-(2-(5-Cyclopropyl-3-(3,5-dichloropyridin-4-yl)isoxazol-4-yl)-7-azaspiro[3.5]non-1-en-7-yl)-7-(trifluoromethyl)quinoline-5-carboxylic acid], the response was half-maximal at 7.2 nM (EC50). As for `Cc1cc(C(=O)O)cc2sc(N3CCC4(C=C(c5c(-c6c(Cl)cncc6Cl)noc5C5CC5)C4)CC3)nc12` [Example 61, 2-(2-(5-Cyclopropyl-3-(3,5-dichloropyridin-4-yl)isoxazol-4-yl)-7-azaspiro[3.5]non-1-en-7-yl)-4-methylbenzo[d]thiazole-6-carboxylic acid], the EC50 turned out to be 7.2 nM. As to `O=C(O)c1ccc2nc(N3CCC4(C=C(c5c(-c6c(Cl)cncc6Cl)noc5C5CC5)C4)CC3)sc2n1` [Example 62, 2-(2-(5-Cyclopropyl-3-(3,5-dichloropyridin-4-yl)isoxazol-4-yl)-7-azaspiro[3.5]non-1-en-7-yl)thiazolo[5,4-b]pyridine-5-carboxylic acid], the EC50 was 24 nM. Consider `O=C(O)c1ccc2nc(N3CCC4(C=C(c5c(-c6c(Cl)cncc6Cl)noc5C5CC5)C4)CC3)sc2c1` [Example 63, 2-(2-(5-Cyclopropyl-3-(3,5-dichloropyridin-4-yl)isoxazol-4-yl)-7-azaspiro[3.5]non-1-en-7-yl)benzo[d]thiazole-6-carboxylic acid], for which the EC50 was determined as 62 nM. Take `COc1ccc(C(=O)O)c2ccc(N3CCC4(C=C(c5c(-c6c(Cl)cncc6Cl)noc5C5CC5)C4)CC3)nc12` [Example 64, 2-(2-(5-Cyclopropyl-3-(3,5-dichloropyridin-4-yl)isoxazol-4-yl)-7-azaspiro[3.5]non-1-en-7-yl)-8-methoxyquinoline-5-carboxylic acid]: the EC50 amounted to 49 nM. To `O=C(O)c1cccc2nc(N3CCC4(C=C(c5c(-c6c(Cl)cncc6Cl)noc5C5CC5)C4)CC3)ccc12` [Example 65, 2-(2-(5-Cyclopropyl-3-(3,5-dichloropyridin-4-yl)isoxazol-4-yl)-7-azaspiro[3.5]non-1-en-7-yl)quinoline-5-carboxylic acid] belongs 65 nM. The same measure for `O=C(O)c1ccc(N2CCC3(C=C(c4c(-c5c(Cl)cncc5Cl)noc4C4CC4)C3)CC2)nc1` [Example 66, 6-(2-(5-Cyclopropyl-3-(3,5-dichloropyridin-4-yl)isoxazol-4-yl)-7-azaspiro[3.5]non-1-en-7-yl)nicotinic acid]: 342 nM; for `O=C(O)c1ccc(N2CCC3(C=C(c4c(-c5c(Cl)cc(F)cc5Cl)noc4C4CC4)C3)CC2)nc1` [Example 67, 6-(2-(5-Cyclopropyl-3-(2,6-dichloro-4-fluorophenyl)isoxazol-4-yl)-7-azaspiro[3.5]non-1-en-7-yl)nicotinic acid]: 493 nM. The same measure for `O=C(O)c1cc(F)c2nc(N3CCC4(C=C(c5c(-c6c(F)cncc6F)noc5C5CC5)C4)CC3)sc2c1` [Example 68, 2-(2-(5-Cyclopropyl-3-(3,5-difluoropyridin-4-yl)isoxazol-4-yl)-7-azaspiro[3.5]non-1-en-7-yl)-4-fluorobenzo[d]thiazole-6-carboxylic acid]: 442 nM; for `COc1cncc(F)c1-c1noc(C2CC2)c1C1=CC2(CCN(c3nc4c(F)cc(C(=O)O)cc4s3)CC2)C1` [Example 69, 2-(2-(5-Cyclopropyl-3-(3-fluoro-5-methoxypyridin-4-yl)isoxazol-4-yl)-7-azaspiro[3.5]non-1-en-7-yl)-4-fluorobenzo[d]thiazole-6-carboxylic acid]: 730 nM; for `COc1cc(C(=O)O)c2nc(N3CCC4(C=C(c5c(-c6c(Cl)cncc6Cl)noc5C5CC5)C4)CC3)sc2c1` [Example 70, 2-(2-(5-Cyclopropyl-3-(3,5-dichloropyridin-4-yl)isoxazol-4-yl)-7-azaspiro[3.5]non-1-en-7-yl)-6-methoxybenzo[d]thiazole-4-carboxylic acid]: 4400 nM. `COc1cc(C(=O)O)cc2sc(N3CCC4(C=C(c5c(-c6ccccc6C(F)(F)F)noc5C5CC5)C4)CC3)nc12` [Example 71, 2-(2-(5-Cyclopropyl-3-(2-(trifluoromethyl)phenyl)isoxazol-4-yl)-7-azaspiro[3.5]non-1-en-7-yl)-4-methoxybenzo[d]thiazole-6-carboxylic acid]: the EC50 amounted to 9.4 nM. Regarding `CCOc1cc(C(=O)O)nc2ccc(N3CCC4(C=C(c5c(-c6ccccc6C(F)(F)F)noc5C5CC5)C4)CC3)cc12` [Example 72, 6-(2-(5-Cyclopropyl-3-(2-(trifluoromethyl)phenyl)isoxazol-4-yl)-7-azaspiro[3.5]non-1-en-7-yl)-4-ethoxyquinoline-2-carboxylic acid], the 50% effective concentration (EC50) amounted to 10 nM. `O=C(O)c1cc(OC(F)F)c2cc(N3CCC4(C=C(c5c(-c6c(Cl)cncc6Cl)noc5C5CC5)C4)CC3)ccc2n1` [Example 73, 6-(2-(5-Cyclopropyl-3-(3,5-dichloropyridin-4-yl)isoxazol-4-yl)-7-azaspiro[3.5]non-1-en-7-yl)-4-(difluoromethoxy)quinoline-2-carboxylic acid] came in with an EC50 of 16 nM. To `O=C(O)c1cc(OC(F)F)c2cc(N3CCC4(C=C(c5c(-c6ccncc6Cl)noc5C5CC5)C4)CC3)ccc2n1` [Example 74, 6-(2-(3-(3-Chloropyridin-4-yl)-5-cyclopropylisoxazol-4-yl)-7-azaspiro[3.5]non-1-en-7-yl)-4-(difluoromethoxy)quinoline-2-carboxylic acid] belongs 38 nM; to `O=C(O)c1cc(OC(F)F)c2cc(N3CCC4(C=C(c5c(-c6cnccc6C(F)(F)F)noc5C5CC5)C4)CC3)ccc2n1` [Example 75, 6-(2-(5-Cyclopropyl-3-(4-(trifluoromethyl)pyridin-3-yl)isoxazol-4-yl)-7-azaspiro[3.5]non-1-en-7-yl)-4-(difluoromethoxy)quinoline-2-carboxylic acid], 35 nM. Regarding `COc1cc(N2CCC3(C=C(c4c(-c5c(Cl)cncc5Cl)noc4C4CC4)C3)CC2)ncc1C(=O)O` [Example 76, 6-(2-(5-Cyclopropyl-3-(3,5-dichloropyridin-4-yl)isoxazol-4-yl)-7-azaspiro[3.5]non-1-en-7-yl)-4-methoxynicotinic acid], the EC50 is 2150 nM. The same measure for `O=C(O)c1cc(OC(F)F)c2cc(N3CCC4(C=C(c5c(-c6cccnc6C(F)(F)F)noc5C5CC5)C4)CC3)ccc2n1` [Example 77, 6-(2-(5-Cyclopropyl-3-(2-(trifluoromethyl)pyridin-3-yl)isoxazol-4-yl)-7-azaspiro[3.5]non-1-en-7-yl)-4-(difluoromethoxy)quinoline-2-carboxylic acid]: 68 nM; for `O=C(O)c1cc(OC(F)F)c2cc(N3CCC4(C=C(c5c(-c6ncccc6Cl)noc5C5CC5)C4)CC3)ccc2n1` [Example 78, 6-(2-(3-(3-Chloropyridin-2-yl)-5-cyclopropylisoxazol-4-yl)-7-azaspiro[3.5]non-1-en-7-yl)-4-(difluoromethoxy)quinoline-2-carboxylic acid]: 121 nM.

Consider `O=C(O)c1cc2ccc(N3CCC4(C=C(c5c(-c6c(F)cccc6F)noc5C5CC5)C4)CC3)cc2nn1` [Example 79, 7-(2-(5-Cyclopropyl-3-(2,6-difluorophenyl)isoxazol-4-yl)-7-azaspiro[3.5]non-1-en-7-yl)cinnoline-3-carboxylic acid], for which the 50% effective concentration (EC50) turned out to be 733 nM.
